Experimental findings from US20250145594A1, “MODULATORS OF THE INTEGRATED STRESS PATHWAY” (Calico Life Sciences LLC, priority 2020, published 2025) are described below.

This experiment has as its system ATF4 luciferase reporter in HEK293T cells. Briefly: ATF4-Luc assay (in vitro model of VWMD). The note with it: Homo sapiens, HEK-293T, 7 h, HEK293T cells carrying the ATF4 luciferase reporter, 1 μg/mL tunicamycin, One Glo luminescence. Format: cell-based, human. The method, then:
In order to test exemplary compounds of the invention in a cellular context, a stable VWMD cell line was first constructed. The ATF4 reporter was prepared by fusing the human full-length ATF4 5′-UTR (NCBI Accession No. BC022088.2) in front of the firefly luciferase (FLuc) coding sequence lacking the initiator methionine as described in Sidrauski et al (eLife 2013). The construct was used to produce recombinant retroviruses using standard methods and the resulting viral supernatant was used to transduce HEK293T cells, which were then subsequently selected with puromycin to generate a stable cell line.
HEK293T cells carrying the ATF4 luciferase reporter were plated on polylysine coated 384-well plates (Greiner Bio-one) at 30,000 cells per well. Cells were treated the next day with 1 μg/mL tunicamycin and 200 nM of a compound of Formula (I) for 7 hours. Luminescence was measured using One Glo (Promega) as specified by the manufacturer. Cells were maintained in DMEM with L-glutamine supplemented with 10% heat-inactivated FBS (Gibco) and Antibiotic-Antimycotic solution (Gibco).
Table 4 below summarizes the EC50 data obtained using the ATF4-Luc assay for exemplary compounds of the invention.
On the technique in general: In a reporter assay the amount or activity of a reporter protein is the signal.
What is called EC50 is the concentration that produces a half-maximal response. With `O=C(N[C@H]1CC[C@H](C(=O)N2CC(c3ccc(C(F)(F)F)cc3)C2)CC1)[C@H]1C[C@@H](O)c2cc(Cl)ccc2O1` [Compound 323, (2R,4R)-6-chloro-4-hydroxy-N-[trans-4-{3-[4-(trifluoromethyl)phenyl]azetidine-1-carbonyl}cyclohexyl]-3,4-dihydro-2H-1-benzopyran-2-carboxamide], the half-maximal effective concentration (EC50) was less than 10 nM.
With `O=C(NC12CC(n3cc(C(=O)N4CC[C@H](OC(F)(F)F)C4)cn3)(C1)C2)[C@@H]1C[C@@H](O)c2cc(Cl)ccc2O1` [Compound 324, (2S,4R)-6-chloro-4-hydroxy-N-(3-{4-[(3S)-3-(trifluoromethoxy)pyrrolidine-1-carbonyl]-1H-pyrazol-1-yl}bicyclo[1.1.1]pentan-1-yl)-3,4-dihydro-2H-1-benzopyran-2-carboxamide] the figure was less than 10 nM; with `O=C(NC12CC(n3cc(N4CCC(OC(F)(F)F)C4)cn3)(C1)C2)[C@H]1C[C@@H](O)c2cc(Cl)ccc2O1` (stereo partly drawn) [Compound 325, (2R,4R)-6-chloro-4-hydroxy-N-(3-{4-[3-(trifluoromethoxy)pyrrolidin-1-yl]-1H-pyrazol-1-yl}bicyclo[1.1.1]pentan-1-yl)-3,4-dihydro-2H-1-benzopyran-2-carboxamide], less than 10 nM.
On to `O=C(NC12CC(n3cc(C(=O)N4CC[C@H](OC(F)(F)F)C4)cn3)(C1)C2)[C@H]1C[C@@H](O)c2cc(C(F)(F)F)ccc2O1` [Compound 326, (2R,4R)-4-hydroxy-N-(3-{4-[(3S)-3-(trifluoromethoxy)pyrrolidine-1-carbonyl]-1H-pyrazol-1-yl}bicyclo[1.1.1]pentan-1-yl)-6-(trifluoromethyl)-3,4-dihydro-2H-1-benzopyran-2-carboxamide], for which the half-maximal effective concentration (EC50) is less than 10 nM.
Turning to `O=C(NC12CC(n3cc(-c4ccc(OC(F)F)nc4)cn3)(C1)C2)[C@H]1C[C@@H](O)c2cc(Cl)ccc2O1` [Compound 327, (2R,4R)-6-chloro-N-(3-{4-[6-(difluoromethoxy)pyridin-3-yl]-1H-pyrazol-1-yl}bicyclo[1.1.1]pentan-1-yl)-4-hydroxy-3,4-dihydro-2H-1-benzopyran-2-carboxamide], the concentration giving a half-maximal response (EC50) was less than 10 nM.
With `CC1(C(F)(F)F)CCCN1C(=O)c1cnn(C23CC(NC(=O)[C@H]4C[C@@H](O)c5cc(Cl)ccc5O4)(C2)C3)c1` (stereo partly drawn) [Compound 328, (2R,4R)-6-chloro-4-hydroxy-N-(3-{4-[2-methyl-2-(trifluoromethyl)pyrrolidine-1-carbonyl]-1H-pyrazol-1-yl}bicyclo[1.1.1]pentan-1-yl)-3,4-dihydro-2H-1-benzopyran-2-carboxamide] the figure was 50 to 250 nM; with `O=C(NC12CC(n3cc(C(=O)N4CC(COC(F)(F)F)C4)cn3)(C1)C2)[C@H]1C[C@@H](O)c2cc(Cl)ccc2O1` [Compound 329, (2R,4R)-6-chloro-4-hydroxy-N-[3-(4-{3-[(trifluoromethoxy)methyl]azetidine-1-carbonyl)-1H-pyrazol-1-yl}bicyclo[1.1.1]pentan-1-yl]-3,4-dihydro-2H-1-benzopyran-2-carboxamide], less than 10 nM.
With `O=C(NC12CC(n3cc([C@H]4C[C@@H](OC(F)(F)F)C4)cn3)(C1)C2)[C@H]1C[C@@H](O)c2cc(Cl)ccc2O1` [Compound 330, (2R,4R)-6-chloro-4-hydroxy-N-(3-{4-[cis-3-(trifluoromethoxy)cyclobutyl]-1H-pyrazol-1-yl}bicyclo[1.1.1]pentan-1-yl)-3,4-dihydro-2H-1-benzopyran-2-carboxamide] the figure was less than 10 nM.
With `O=C(NC12CCC(n3cc(C(=O)N4CC[C@H](OC(F)(F)F)C4)cn3)(CC1)CC2)[C@H]1C[C@@H](O)c2cc(Cl)ccc2O1` [Compound 331, (2R,4R)-6-chloro-4-hydroxy-N-(4-{4-[(3S)-3-(trifluoromethoxy)pyrrolidine-1-carbonyl]-1H-pyrazol-1-yl}bicyclo[2.2.2]octan-1-yl)-3,4-dihydro-2H-1-benzopyran-2-carboxamide] the figure was less than 10 nM.
